# Measurements: PMC6389950, “Small Peptide Ligands for Targeting EGFR in Triple Negative Breast Cancer Cells” (Scientific Reports, 2019)
# Several values for one entry are separate records, joined by “and”; a condition that tells them apart may be missing. Equal entries are not always repeated.
# How the values were obtained:
# Assay type in all cases: cell-based
# MCF-10A = assay: Peptide array-whole cell binding assay; settings: non-tumorigenic cells; peptide conjugated to cellulose membrane (amino-PEG500); cells 75 × 10^3 cells/mL, 37 °C, 4 h; CyQUANT fluorescence relative to peptide 1; spots in duplicate
# Excerpt: (§1) Peptide array on the cellulose membrane was used to evaluate the binding of each peptide to different cell lines. The amino functionalized cellulose membrane provided by Intavis is acid hardened providing high stability at pH range from 1–14, permitting its use in acidic or basic conditions while maintaining membrane integrity. The PEG linker on membrane surface functions as a hydrophilic spacer between the peptide and the solid surface (membrane) reducing background signal. Cell lines were carefully selected for screening peptides as our goal here is to screen peptides with high binding/uptake by the TNBC cells. […] EGFR is overexpressed by a number of TNBC cells such as MDA-MB-468 (obtained from primary tumor source) and MDA-MB-231 (from metastasis cancer tissue)[13],[14]. While other TNBC cells like MDA-MB-436 (obtained from metastasis cancer tissue) are known to express low levels of EGFR. Non-tumorigenic epithelial MCF10A and MCF12A cells derived from the breast tissue also express low levels of EGFR[14],[34]. We selected two TNBC cell lines with relatively high expression of EGFR expression (MDA-MB-468/231) and a TNBC cell line with low level of EGFR expression (MDA-MB-436) for the peptide array screening experiments. In addition, non- tumorigenic cell line, MCF-10A was used for comparison. These four cell lines were allowed to bind the membrane by seeding the cells on the membrane and the bound cells were labeled with a fluorescent dye CyQUANT.
# (§2) For the binding assay, the peptide array was incubated with the cells in sequential steps as described previously. Briefly peptide array membrane was dipped in ethanol for 30 s to remove any precipitation on it, followed by dipping in sterile PBS (pH 7.4) for another 30 min. The cells (75 × 10^3 cells/mL) were seeded directly on the membrane in a sterile plate and incubated at 37 °C for 4 h. The unbound cells were washed out with sterile PBS (pH 7.4). Thereafter the membrane was placed in a sealed bag and transferred to −80 °C freezer for 2 h. Subsequently it was defrosted at room temperature and treated with CyQUANT solution. The CyQUANT concentration was optimized based on the manufacturer’s protocol and preliminary experiments. Membrane was incubated at 37 °C for 30 min with the dye. After washing with sterile PBS and air drying using blow dryer, the membrane was scanned using Bio-rad chemidoc imager with image lab software. The settings were adjusted based on the excitation (465 nm) and emission (535 nm) wavelengths of CyQUANT dye. Epi Blue was selected for the light source (455–485 nm) and filter number 4 (blue filter, 518–546 nm) was employed. The fluorescence intensity of cancer cells read using chemidoc imager was normalized using the non-cancer cell fluorescence intensity. Eventually relative fluorescence was assessed to select peptides with high affinity to cancer cells and low or minimal binding to normal cells.
# MDA-MB-231 [1] = assay: Peptide array-whole cell binding assay; settings: peptide conjugated to cellulose membrane (amino-PEG500), no free C-terminus; cells 75 × 10^3 cells/mL, 37 °C, 4 h; CyQUANT fluorescence relative to peptide 1; spots in duplicate
# Excerpt: as §1, §2
# MDA-MB-436 [2] = assay: Peptide array-whole cell binding assay; settings: peptide conjugated to cellulose membrane (amino-PEG500), no free C-terminus; cells 75 × 10^3 cells/mL, 37 °C, 4 h; CyQUANT fluorescence relative to peptide 1; spots in duplicate
# Excerpt: as §1, §2
# MDA-MB-468 [3] = assay: Peptide array-whole cell binding assay; settings: peptide conjugated to cellulose membrane (amino-PEG500), no free C-terminus; cells 75 × 10^3 cells/mL, 37 °C, 4 h; CyQUANT fluorescence relative to peptide 1; spots in duplicate
# Excerpt: as §1, §2
# MDA-MB-231 [4] = assay: In vitro cellular uptake of FITC-labeled peptides by FACS; settings: soluble FITC-β-alanine-labeled peptide 1 µM, 30 min, 37 °C, FBS free media, 10^5 or 10^6 cells/well, MFI of FITC positive cells, three independent experiments ± SD
# Excerpt: (§3) Flow cytometry was employed to determine the cellular uptake of selected six peptides (1, 4, 22, 23, 26, and 27). As opposed to the membrane bound (conjugated) peptide in library screening, the peptides used here were soluble (or free) FITC-labeled peptides. Peptides were labeled with FITC in the N-terminal and a β-alanine residue was used as a spacer between the FITC and the peptide sequence. The same three TNBC cells lines (MDA-MB-468, MDA-MB-231 and MDA-MB-436) used for peptide array screening were used here as well. Peptides 1 and 4 were used as controls. […] Peptide 4 was included in this experiment to compare the uptake of this keratin 1 binding peptide with the EGFR binding peptides. Peptides 22, 23, 26, and 27 were identified as the best EGFR binding peptides from the library screening.
# (§4) Fluorescence-activated cell-sorting (FACS) analysis was used to check the uptake of the FITC-peptides. The stock solution for the FITC-peptides (100 μM) was prepared by dissolving the peptides in sterile water/10% DMSO. MDA-MB-231, MDA-MB-468 and MDA-MB-436 cells were seeded in 6-well plates with 10^6/10^5 cells/well containing 3 mL media and the plates were incubated at 37 °C overnight. The following day, the media was replaced with fresh FBS free media (1 mL) containing FITC-labeled peptide (1 µM), and further incubated at 37 °C for 30 min. Thereafter the media was removed and the cells were washed with cold PBS to remove any remaining peptide. Adequate trypsin was added to each well followed by 3–5 min incubation at 37 °C. Trypsin was immediately neutralized by adding media and the cell suspension was transferred into centrifuge tubes. The cells were separated and washed twice with FACS sheath fluid. The control cells were treated similarly but without peptide. Two wells were assigned for each peptide and each well sample was read twice in FACS machine. The experiment was repeated once. MFI represents the average of all wells for each peptide.
# MDA-MB-436 [5] = assay: as above; settings: soluble FITC-β-alanine-labeled peptide 1 µM, 30 min, 37 °C, FBS free media, 10^5 or 10^6 cells/well, MFI of FITC positive cells, three independent experiments ± SD
# Excerpt: as §3, §4
# MDA-MB-468 [6] = assay: as above; settings: soluble FITC-β-alanine-labeled peptide 1 µM, 30 min, 37 °C, FBS free media, 10^5 or 10^6 cells/well, MFI of FITC positive cells, three independent experiments ± SD
# Excerpt: as §3, §4
Substance,Relative Cell Adhesion MCF-10A (MCF-10A),Relative Cell Adhesion MDA-MB-231 (MDA-MB-231 [1]),Relative Cell Adhesion MDA-MB-436 (MDA-MB-436 [2]),Relative Cell Adhesion MDA-MB-468 (MDA-MB-468 [3]),Mean Fluorescence Intensity ± SD MDA-MB-231 (MDA-MB-231 [4]),Mean Fluorescence Intensity ± SD MDA-MB-436 (MDA-MB-436 [5]),Mean Fluorescence Intensity ± SD MDA-MB-468 (MDA-MB-468 [6])
AHWYGYTPQNVI [Peptide 6],1.1,1.3,1.0,1.2,–,–,–
FHWYGYTPQNVI [Peptide 28],1.2,1.5,0.8,1.2,–,–,–
HWYGYTPQNVI [Peptide 20],1.2,1.5,1.0,1.2,–,–,–
Peptide 2: scrambled negative control sequence WQTNYIHPYVYG,1.0,1.2,1.1,1.1,–,–,–
"Peptide 4: positive control peptide p160, VPWXEPAYQRFL, binds keratin 1 [reference compound]",1.2,1.3,1.1,1.1,4791 ± 354,305 ± 58,23741 and 23741 ± 3068
"WXEAAYQRFL [Peptide 5, positive control, peptide 18 from a previous study, WXEAAYQRFL, reference compound]",1.7,1.7,1.8,1.3,–,–,–
WYGYTPQNVI [Peptide 21],1.2,1.9,1.0,1.4,–,–,–
YAWYGYTPQNVI [Peptide 7],1.0,1.1,1.0,1.1,–,–,–
YGPWYNHYITQV [Peptide 3],1.0,1.1,1.1,1.0,–,–,–
YHAYGYTPQNVI [Peptide 8],0.9,1.0,0.9,0.8,–,–,–
YHWAGYTPQNVI [Peptide 9],1.0,1.4,1.2,1.3,–,–,–
YHWFGYTPQNVI [Peptide 29],1.1,1.7,1.1,1.2,–,–,–
YHWYAYTPQNVI [Peptide 10],1.1,1.5,1.2,1.3,–,–,–
YHWYGATPQNVI [Peptide 11],1.0,1.3,1.0,1.2,–,–,–
YHWYGFTPQNVI [Peptide 30],1.0,1.5,0.9,1.3,–,–,–
YHWYGYAPQNVI [Peptide 12],1.1,1.3,1.0,1.0,–,–,–
YHWYGYTAQNVI [Peptide 13],1.1,1.5,1.1,1.3,–,–,–
YHWYGYTPANVI [Peptide 14],1.2,1.7,1.2,1.4,–,–,–
YHWYGYTPKNVI [Peptide 26],0.8,1.6,1.0,1.3,1877 ± 67,16 ± 18,6457 ± 557
YHWYGYTPQAVI [Peptide 15],1.1,1.6,0.9,1.2,–,–,–
YHWYGYTPQDVI [Peptide 23],1.4,2.8,1.0,1.6,1631 ± 110,36 ± 14,4661 ± 883
YHWYGYTPQKVI [Peptide 27],1.0,1.8,1.0,1.2,1683 ± 163,21 ± 17,5248 ± 407
YHWYGYTPQN [Peptide 19],1.1,2.0,1.1,1.3,–,–,–
YHWYGYTPQNAI [Peptide 16],1.2,1.4,1.0,1.1,–,–,–
YHWYGYTPQNV [Peptide 18],1.2,1.9,1.3,1.4,–,–,–
YHWYGYTPQNVA [Peptide 17],1.2,1.6,1.2,1.4,–,–,–
YKWYGYTPQNVI [Peptide 24],1.0,1.4,1.0,1.1,–,–,–
YRWYGYTPQNVI [Peptide 25],1.2,1.9,1.0,1.4,–,–,–
